Assay results from patent US20250059231A1, “Protease inhibitors” (priority 2021, published 2025).
pIC50: −log10 of the molar value. Like-named read-outs stand apart in the source and are kept apart here. Where a SMILES comes first, the peptide text is derived from it. [ ]: non-standard residue; d: D form. The star is where a group is joined. Palmitoyl = CCCCCCCCCCCCCCCC(=O)*; hPhe = N[C@@H](CCc1ccccc1)C(=O)O; β3hK = NCCCC[C@H](N)CC(=O)O

Tests used:
DENV protease = target: T1, DENV protease (Dengue virus type 2, UniProt P29990); experiment: biochemical; details: at 50 μM; read-out: inhibition of DENV
T1 construct: The virus-encoded dengue protease comprises the amino-terminal 180 amino acids of NS3 (NS3pro) of the polyprotein
T1 sequence (P29990 1398-1437): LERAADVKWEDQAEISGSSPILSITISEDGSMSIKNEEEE
T1 sequence (P29990 1476-1653): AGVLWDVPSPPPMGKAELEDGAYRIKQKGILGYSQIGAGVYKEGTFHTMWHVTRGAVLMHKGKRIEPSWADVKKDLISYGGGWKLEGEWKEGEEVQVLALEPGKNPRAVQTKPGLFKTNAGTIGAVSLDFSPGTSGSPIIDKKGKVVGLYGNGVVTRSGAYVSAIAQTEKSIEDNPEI
Method in brief: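 DENV protease (100 nM) was pre-incubated 15 min with inhibitors in 50 mM Tris-HCl pH 9.0, 10% ethylene glycol, 0.0016% Brij 58. FRET substrate (50 μM final) started the reaction, monitored 15 min as RFU/s slope. IC50 came from triplicate means versus concentration.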

human Trypsin = human Trypsin (Homo sapiens, UniProt P07477); experiment: Selectivity screening, human serine protease trypsin; format: biochemical; details: read-out: inhibition of human Trypsin
Experimental: (§1) By catalytic activity of the protease, the cleaved substrate results in increased fluorescence that can be monitored using a BMG Labtech Fluostar OPTIMA Microtiter fluorescence plate reader (excitation wavelength of 320 nm and a monitored emission wavelength of 405 nm). Dilutions were made starting from 10 mM stock solutions in DMSO and final concentrations were measured in triplicates. The inhibitors were preincubated for 15 min with DENV protease (100 nM) in the assay buffer (50 mM Tris-HCl pH 9.0, ethylene glycol (10% v/v), and 0.0016% Brij 58). The enzymatic reaction was initiated by the addition of the FRET substrate (final concentration 50 μM) to obtain a final assay volume of 100 μL per well. The enzymatic activity was monitored for 15 min and determined as a slope of relative fluorescence units per second (RFU/s) for each concentration. The mean of the triplicates were plotted against the corresponding concentration in CDDVault to determine the IC50-values. Analogous procedures were used to determine the inhibitory potency on WNV (Kühl et al., J. Med. Chem. 2020, 63 (15): 8179-8197) and ZIKA protease (Nitsche et al., ACS Med. Chem. Lett. 2019 Feb. 14; 10 (2): 168-174). For selectivity screening of active candidates, similar biochemical assays with human serine proteases trypsin (Weigel et al., J. Med. Chem. 2015, 58 (19), 7719-7733.) and/or thrombin (Nitsche et al., J. Med. Chem. 2013, 56 (21), 8389-8403) were used.

human Thrombin = human Thrombin (Homo sapiens, UniProt P00734); experiment: Selectivity screening, human serine protease thrombin; format: biochemical; details: read-out: inhibition of human Thrombin
Experimental: as §1

WNV protease [1] = target: T2, WNV protease (West Nile virus, UniProt P06935); experiment: WNV protease assay (analogous procedure); format: biochemical; details: read-out: IC50 for WNNV
T2 construct: a trypsin-like serine protease domain in the N-terminal region of the flaviviral NS3 proteins
T2 sequence (P06935 1424-1463): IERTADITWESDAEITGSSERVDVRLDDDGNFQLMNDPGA
T2 sequence (P06935 1502-1679): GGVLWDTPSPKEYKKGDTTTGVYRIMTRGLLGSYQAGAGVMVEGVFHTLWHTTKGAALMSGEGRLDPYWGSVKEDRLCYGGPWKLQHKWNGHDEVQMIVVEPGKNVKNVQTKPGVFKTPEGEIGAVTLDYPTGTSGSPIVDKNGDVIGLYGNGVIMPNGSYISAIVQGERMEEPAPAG

WNV protease [2] = target: T2, WNV protease; experiment: WNV protease assay (analogous procedure); format: biochemical; details: at 50 μM
Experimental: as §1

ZIKA protease = target: T3, ZIKA protease (Zika virus, UniProt Q32ZE1); experiment: biochemical; details: for inhibition at 50 µM / inhibition at 1 µM: read-out: inhibition of ZIKV
T3 construct: a trypsin-like serine protease domain in the N-terminal region of the flaviviral NS3 proteins
T3 sequence (Q32ZE1 1499-1676): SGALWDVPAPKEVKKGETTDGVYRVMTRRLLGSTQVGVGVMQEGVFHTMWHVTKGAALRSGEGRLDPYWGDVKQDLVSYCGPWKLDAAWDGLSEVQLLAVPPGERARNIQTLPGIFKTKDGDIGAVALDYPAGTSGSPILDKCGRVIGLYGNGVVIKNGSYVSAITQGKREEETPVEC
T3 sequence (Q32ZE1 1421-1460): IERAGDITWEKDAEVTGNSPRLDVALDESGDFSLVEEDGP
Experimental: as §1

Compound	inhibition at 50 µM (DENV protease) [%]	inhibition at 5 µM (human Trypsin) [%]	inhibition at 25 µM (human Trypsin) [%]	inhibition at 5 µM (human Thrombin) [%]	pIC50 (WNV protease [1])	inhibition at 50 µM (WNV protease [2]) [%]	pIC50 (ZIKA protease)	inhibition at 50 µM (ZIKA protease) [%]	inhibition at 5 µM (human Trypsin; at 5 μM) [%]	inhibition at 25 µM (human Trypsin; at 25 μM) [%]	inhibition at 5 µM (human Thrombin; at 5 μM) [%]	inhibition at 50 µM (ZIKA protease; at 50 μM) [%]	inhibition at 1 µM (ZIKA protease) [%]
CCCCCCCCCCCCCCCC(=O)N[C@@H](CCCCN)C(=O)N[C@@H](C)C(=O)N[C@@H](C)C(=O)N[C@H](CCc1ccccc1)C(=O)C(N)=O [compound 5]	≥ 25	< 10	< 20	< 5	≥ 4.40	≥ 25	≥ 4.60	≥ 65	–	–	–	–	–
CCCCCCCCCCCCCCCC(=O)N[C@@H](CCCCN)C(=O)N1CCC[C@H]1C(=O)N[C@@H](C)C(=O)N[C@@H](CCc1ccccc1)C(=O)C(N)=O [compound 6]	≥ 25	< 10	< 20	< 5	≥ 4.40	≥ 25	≥ 4.60	≥ 65	–	–	–	–	–
CCCCCCCCCCCCCCCC(=O)N[C@H](C)C(=O)N1C[C@H](Oc2ccncc2)C[C@H]1C(=O)N[C@H](C)C(=O)N[C@H](CCCCN)C(N)=O [compound 8]	≥ 25	–	–	–	≥ 4.40	≥ 25	≥ 4.60	–	< 10	< 20	< 5	≥ 65	–
CCCCCCCCCCCCCCCC(=O)N[C@@H](CCCCN)C(=O)N1CCC[C@H]1C(=O)N[C@@H](Cc1cnc[nH]1)C(=O)N[C@@H](CCc1ccccc1)C(N)=O [compound 11] (Palmitoyl-KPH[hPhe]-NH2)	≥ 25	–	–	–	≥ 4.40	≥ 25	≥ 4.60	–	< 10	< 20	< 5	≥ 65	≥ 10
CCCCCCCCCCCCCCCC(=O)N[C@@H](CCCCN)C(=O)N[C@@H](C)C(=O)N[C@@H](C)C(=O)N[C@@H](Cc1c[nH]c2ccccc12)C(N)=O [compound 92] (Palmitoyl-KAAW-NH2)	≥ 25	–	–	–	≥ 4.40	≥ 25	≥ 4.60	–	< 10	< 20	< 5	≥ 65	≥ 10
CCCCCCCCCCCCCCCC(=O)N[C@H](CCCCN)C(=O)N[C@@H](C)C(=O)N[C@@H](C)C(=O)N[C@@H](CCCCN)C(N)=O [compound 115] (Palmitoyl-[dK]AAK-NH2)	≥ 25	–	–	–	≥ 4.40	≥ 25	≥ 4.60	–	< 10	< 20	< 5	≥ 65	≥ 10
CCCCCCCCCCCCCCCC(=O)N[C@@H](CCCCN)CC(=O)N1CCC[C@H]1C(=O)N[C@@H](C)C(=O)N[C@@H](Cc1ccccc1)C(N)=O [compound 116] (Palmitoyl-[β3hK]PAF-NH2)	≥ 25	–	–	–	≥ 4.40	≥ 25	≥ 4.60	–	< 10	< 20	< 5	≥ 65	≥ 10
CCCCCCCCCCCCCCCC(=O)N[C@@H](CCCCN)CC(=O)N1CCC[C@H]1C(=O)N[C@@H](C)C(=O)N[C@@H](CCc1ccccc1)C(N)=O [compound 117] (Palmitoyl-[β3hK]PA[hPhe]-NH2)	≥ 25	–	–	–	≥ 4.40	≥ 25	≥ 4.60	–	< 10	< 20	< 5	≥ 65	≥ 10
CCCCCCCCCCCCCCCC(=O)N[C@@H](CCCCN)CN1CCC[C@H]1C(=O)N[C@@H](C)C(=O)N[C@H](Cc1c[nH]c2ccccc12)C(N)=O [compound 122]	≥ 25	–	–	–	≥ 4.40	≥ 25	≥ 4.60	–	< 10	< 20	< 5	≥ 65	–
